The structures appear in SMILES notation.

We go through ten compounds from BindingDB's records for doi:10.1016/j.bbrc.2004.06.020 (Chosun University, 2004).

This data set is described as follows: TP_TRANSPORTER: drug resistance (vincristine) in AML-2/D100 cells.
For `COc1ccc(-c2cc(=O)c3c(OC)cc(OC)cc3o2)cc1` [TRIMETHYLAPIGENIN], the IC50 amounted to 1400 nM. That is a single-digit micromolar value.
In turn, `COc1ccc2oc(-c3ccc(OC)c(OC)c3)c(OC)c(=O)c2c1` displayed an IC50 of 1900 nM.
For `COc1cc(-c2oc3cc(O)cc(O)c3c(=O)c2O)cc(OC)c1OC`, the IC50 turned out to be 3200 nM.
In the case of `COc1ccc2c(=O)cc(-c3ccc(OC)c(OC)c3)oc2c1` it was 1200 nM; in that of `O=c1cc(-c2ccc(O)c(O)c2)oc2cc(O)cc(O)c12` [2-(3,4-dihydroxyphenyl)-5,7-dihydroxy-4H-chromen-4-one], 19600 nM; in that of `COc1ccc(-c2cc(=O)c3c(OC)c(OC)c(OC)cc3o2)cc1OC` [2-(3,4-dimethoxyphenyl)-5,6,7-trimethoxy-4H-chromen-4-one], 3200 nM.
In the case of `COc1cc(-c2cc(=O)c3c(OC)c(OC)c(OC)cc3o2)cc(OC)c1OC` it was 900 nM.
Then `COc1ccc(-c2oc3cc(O)ccc3c(=O)c2O)cc1OC`, with 6300 nM; and `COc1cc(OC)c2c(=O)cc(-c3cc(OC)c(OC)c(OC)c3)oc2c1`, with 400 nM.
For the compound `COc1ccc(-c2cc(=O)c3ccccc3o2)cc1OC`, inhibition was half-maximal at 1200 nM (IC50). Compared with the last compound, the IC50 is about 3-fold higher.
